In PubChem BioAssay (NCI):
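Briefly, cells in 96-well plates were exposed to five compound concentrations for 48 h, and endpoints were estimated by linear interpolation. GI50 marks 50% less growth. TGI: concentration producing complete growth inhibition.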

Legend:
Assay in all cases: growth of human tumour cells (NCI), 48 h
OVCAR-3 ovarian = tested on: OVCAR-3 ovarian
NCI-H226 lung = tested on: NCI-H226 lung
SW-620 colon = tested on: SW-620 colon
ACHN renal = tested on: ACHN renal
LOX IMVI melanoma = tested on: LOX IMVI melanoma
HCT-15 colon = tested on: HCT-15 colon
NCI-H23 lung = tested on: NCI-H23 lung
RPMI-8226 leukemia = tested on: RPMI-8226 leukemia
SN12C renal = tested on: SN12C renal
DU-145 prostate = tested on: DU-145 prostate

Compound	TGI (OVCAR-3 ovarian) [µM]	TGI (NCI-H226 lung) [µM]	TGI (SW-620 colon) [µM]	TGI (ACHN renal) [µM]	TGI (LOX IMVI melanoma) [µM]	TGI (HCT-15 colon) [µM]	TGI (NCI-H23 lung) [µM]	TGI (RPMI-8226 leukemia) [µM]	TGI (SN12C renal) [µM]	TGI (DU-145 prostate) [µM]	GI50 (OVCAR-3 ovarian) [µM]	GI50 (NCI-H226 lung) [µM]	GI50 (SW-620 colon) [µM]	GI50 (ACHN renal) [µM]	GI50 (LOX IMVI melanoma) [µM]	GI50 (HCT-15 colon) [µM]	GI50 (NCI-H23 lung) [µM]	GI50 (RPMI-8226 leukemia) [µM]	GI50 (SN12C renal) [µM]	GI50 (DU-145 prostate) [µM]
COc1c(-c2cc(C)c(Cl)c(=O)[nH]2)c(O)c(OC)c2occc12	> 100	> 100	> 100	> 100	> 100	> 100	> 100	> 100	> 100	> 100										
Brc1ccc2c(-c3nc(-c4c[nH]c5ccccc45)cs3)c[nH]c2c1	> 100	> 100	> 86.8	> 100	> 73	> 100	> 88	> 100	> 100	> 100										
CC1(CCCC2(C)CCNC2=O)OCCO1 (stereo not given)	> 10	> 10	> 10	> 10	> 10	> 10	> 10	> 10	> 10	> 10										
CCN(CC)CCCCCCCCNc1c2ccc(Cl)cc2nc2ccc(OC)cc12	4.33	3.74	2.67	2.5	4.94	2.46	7.25	3.34	3.73	3.18	1.91	1.74	1.02	1.03	1.48	0.966	2.28	0.675	1.64	1.55
N#CCCNCCN(CCN(C(=O)Nc1ccccc1)c1ccccc1)C(=O)Nc1ccccc1		> 100	> 100	> 100	> 100	> 100	> 100	> 100	> 100	> 100										
CCSSCS(C)(=O)=O	99.2	96.4	> 100	> 100	> 100	32.9	98		67.8	50.5										
CO/C(=N\N=C\c1ccc(Cl)cc1)c1ccncc1	> 100	> 100	> 100	> 100		> 100	> 100	> 100	> 100											
O=C(CCc1cccc(O)c1)NCCc1cccc(O)c1	> 100	> 100		> 100	> 100	> 100	> 100		> 100	> 100										
CC(=O)Nc1ccc2c(C(=O)O)c(C)c(=O)[nH]c2n1		> 100	> 100	> 100		> 100	> 100	> 100	> 100	> 100										
CSc1nc2ccccc2c(=O)n1/N=C1\C(=O)N(CN2CCOCC2)c2ccc(Cl)cc21	> 100	> 100	> 100	> 100	33.3	> 100	> 100		> 100	63.6										
COC(=O)C1=C(C)N2CCCOC2(C)C(C(=O)OC)C1c1cccc(Cl)c1 (stereo not given)	70.8	59.6	> 100	93.3			> 100	52.1												
O=[N+]([O-])c1ccc2c(c1)nc(Cc1ccccc1)n2C[C@@H]1CCCN2CCCCC12 (stereo not given in full)	> 100	> 100	> 100	> 100	60.2	> 100	> 100		> 100	> 100										
COC12C=C/C(=C(/C(=O)OCc3ccncn3)C(=O)CCCCCCCCC3(OC)C=C/C(=C(/C(=O)OCc4ccncn4)C(=O)CCCCCCCC1)O3)O2	0.903		1.14	1.14	0.503	1.12	0.944	0.995	1.12	2.72	0.317		0.303	0.302	0.211	0.278	0.293	0.263	0.297	0.484
Cc1nc2c(cc1C(=O)NN)c(=O)n(C)c(=O)n2C	> 100	> 100	> 100	> 100		> 100	> 100	> 100	> 100	> 100										
CC(=O)N1N=C(c2c(O)ccc3ccccc23)CC1C(=O)c1ccco1 (stereo not given)	44	> 100	> 100	> 100		> 100	84.6	57.2	> 100	> 100										
COCn1c(C)c(C)c2c(=O)oc(=O)[nH]c21		> 100	> 100	> 100	> 100	> 100	> 100	> 100	> 100	> 100										
CC/C(Cl)=N\OC(=O)Nc1ccc(OC)cc1	10.7	28.3		3.5	4.89	3.12	38.6	5.59	11.4	31.3										
CN(C)CCCn1c(Cc2ccccc2)nc2cc(C(F)(F)F)ccc21	> 100	> 100	75.2	> 100	35.6	69.6	83.2		> 100	> 100										
C1=C[C@@H]2c3ccc4cnccc4c3NC[C@@H]2C1	> 100	> 100	> 100	> 100		> 100	> 100	> 100	> 100	> 100										
CC1(C)O[C@H](C(=O)O)[C@@H](C(=O)O)O1		> 100	> 100	> 100	> 100	> 100		> 100	> 100	> 100										
COC(c1ccsc1)C(C#N)(C#N)N=Cc1ccsc1 (stereo not given)	42.2	54.9	28.4	54.6	22	25.9	26.2		30.8	28.5										
